Measured values from patent US7601805B2, “Photoprotein with improved bioluminescence” (AXXAM S.R.L., priority 2002, dated 2009).

Tests used:
[1] = test system: endogenous ATP receptor expressed by CHO-K1 cell; assay: ATP-stimulated light emission in CHO-K1 cells transfected with Photin DNA; type: cell-based; details: two different concentrations of ATP (FIG. 3A)
Description: Cell transfection, harvesting, and Photin expression were performed as described in Example 1. Cells were treated with two different concentration of ATP. (B) The CHO-K1 cells transfected with Obelin DNA were used as positive control. Luminescence is expressed in RLU (relative light units).
3.1 Photin-expressing clones have been obtained by transfection of CHO-K1 cells (Materials and Methods). Two days after transfection the cells were trypsinized and diluted 10 or 100 times. Once the cells were grown up to well isolated colonies, the colonies were transferred to new plates and selected on the basis of their functional response (luminescent signal) to different concentration of ATP, which is known to stimulate the CHO endogenous receptor and to rise the cytoplasmic Ca^++ concentration. At the end of each experiment, cells were lysed by perfusion of a solution containing TritonX-100 and CaCl2. The active photoprotein was reconstituted incubating the cells with 10 μM coelenterazine diluted in PBS containing 2 mM calcium, in the dark at 37° C. in a 5% CO2 atmosphere for 3 hrs. For light emission measurement, cells were lysed in the presence of calcium and the emitted luminescence recorded. […] To detect changes in calcium concentrations, 10, 50 and 100 μM ATP were injected and the kinetics of calcium response determined. […]

[2] = target: T1, rat VR1 capsaicin receptor (Rattus norvegicus, UniProt O35433); assay: Capsaicin-stimulated flash luminescence in CHO cells expressing Apophotin and rat VR1; type: cell-based; details: 10 and 50 μM capsaicin; CHO cells with Apophotin and rat VR1 (FIG. 5)
T1 construct: expressed in transfected cells; host or cells: CHO
Description: The specific agonist, capsaicin, was used at a concentration of 10 and 50 μM.
3.3 CHO cell lines expressing both Apophotin and the rat VR1 capsaicin receptor—a calcium-permeable ion channel—were grown to 80-95% confluence in tissue culture flasks and harvested by trypsinization. Cells were dispensed at 10,000 cells/well in a 96-well white plates in growth medium and incubated overnight at 37° C. in a humidified incubator at 5% CO2. For luminescence experiments, the cells were loaded with coelenterazine 10 μM for 3 h at 37° C., 5% CO2. Calcium response was stimulated by addition of 10 and 50 μM capsaicin to each well. The kinetics of flash luminescence was followed using Labsystem Luminoskan Ascent, which injects reagents and records light emission from each single well.

T1 sequence (O35433 whole entry): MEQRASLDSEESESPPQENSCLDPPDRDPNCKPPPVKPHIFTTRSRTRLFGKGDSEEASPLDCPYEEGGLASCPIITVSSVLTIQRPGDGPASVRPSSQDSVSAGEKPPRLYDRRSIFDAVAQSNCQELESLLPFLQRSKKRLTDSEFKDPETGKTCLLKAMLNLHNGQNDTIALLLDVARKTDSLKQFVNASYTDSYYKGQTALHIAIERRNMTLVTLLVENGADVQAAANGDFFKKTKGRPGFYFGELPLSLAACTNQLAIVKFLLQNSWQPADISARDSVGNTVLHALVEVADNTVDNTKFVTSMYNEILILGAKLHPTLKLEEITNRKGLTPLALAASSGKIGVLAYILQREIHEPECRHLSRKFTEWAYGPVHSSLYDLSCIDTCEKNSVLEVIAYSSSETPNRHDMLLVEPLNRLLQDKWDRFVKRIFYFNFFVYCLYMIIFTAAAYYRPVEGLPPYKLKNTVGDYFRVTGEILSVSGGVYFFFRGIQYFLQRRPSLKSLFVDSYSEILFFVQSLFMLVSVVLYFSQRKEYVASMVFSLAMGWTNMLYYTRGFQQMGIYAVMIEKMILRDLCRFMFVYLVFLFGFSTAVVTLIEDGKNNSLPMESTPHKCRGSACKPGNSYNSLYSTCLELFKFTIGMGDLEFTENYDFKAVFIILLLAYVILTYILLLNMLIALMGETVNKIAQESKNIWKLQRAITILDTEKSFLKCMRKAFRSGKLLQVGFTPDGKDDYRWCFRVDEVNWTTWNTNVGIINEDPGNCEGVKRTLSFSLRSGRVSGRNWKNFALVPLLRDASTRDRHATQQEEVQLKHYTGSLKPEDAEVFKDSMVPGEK

SMILES | light emission upon stimulation of the endogenous ATP receptor [1] | time of peak level of luminescence signal [2] | time within which the rapid and transient luminescence signal occurred [2]
Nc1ncnc2c1ncn2[C@@H]1O[C@H](COP(=O)(O)OP(=O)(O)OP(=O)(O)O)[C@@H](O)[C@H]1O [ATP] | dose dependent light emission |  | 
COc1cc(CNC(=O)CCCC/C=C/C(C)C)ccc1O [capsaicin] |  | about 10 seconds | ≤ 30 s
